The text below walks through data of patent US20140308657A1, “SERINE PROTEASE INHIBITOR KAZAL ANTIBODIES” (priority 2010, published 2014).

In one test the test system is SPIK RNA. The test is described as follows: SPIK RNA level in G54 HCV replicon cells after antiviral treatment. Format: cell-based, human. The conditions noted are these: 10^5 IU/ml overnight. The protocol:
(§1) FIG. 7A-7B. SPIK in the HCV expressing cells. SPIK RNA was detected in the cells with/without HCV replicon as before. HCV RNA was defined by the hybridization of membrane with radio-labeled probe specified HCV.
(§2) FIG. 7B—HCV replicon cells were incubated with HCV polymerase inhibitor 888 (2 mM) 2 days (Lines 3 & 4 duplicate) and 10^5 IU/ml interferon-a overnight (Lines 5 & 6 duplicate) or left untreated (Line 1 & 2 duplicate). The suppressions of HCV RNA and SPIK RNA then were analyzed by Northern blot as before. The smear detected by HCV probe under the band of HCV RNA probably was the replication form of HCV.
(§3) Over-expression of SPIK RNA in G54 cells can be abrogated by inhibition of HCV replication. Treatment of HCV replicon cells with either 2 mM of the HCV polymerase inhibitor 888 for two days or 10^5 IU/ml interferon-a overnight has reduced HCV replication by approximately 90% [FIG. 7B, lane 3-6]. This is consistent with previous reports of these antiviral agents (55, 56).
A general note: In antiviral work, replicon cells carry a viral genome segment that copies itself.

The next test concerns HCV replicon. The test is described as follows: HCV replication in HCV replicon cells (Northern blot of HCV RNA). The format is cell-based. The conditions noted are these: 10^5 IU/ml overnight. The protocol:
as §1, §2, §3

The subject of another test is prostate tumor cells. The conditions noted are these: cited from earlier work.
The next test deals with caspase 3. Put plainly: Caspase 3 activity in S2-3 and Huh7T cells. The format is cell-based, human. The conditions noted are these: 40 hours treatment, caspase 3 kit. The method, then:
FIG. 5B. The activation of caspase 3 (CDCA) in S2-3 cells treated with etoposide but not BFA/CHX/Z-VAD. The S2-3 cell and its parental cell Huh7T were either treated with SPDCA inducer BFA/CHX/ZVAD or CDCA inducer etoposide. The caspase activity was determined after […] treatment by Caspase 3 detection kit (Biovision, Mountain View, Calif.).
The same level of apoptosis induced by etoposide in S2-3 cell and Huh7T cell was confirmed by the examination of caspase 3 activity in these cells. After 40 hours treatment, all cells were lysed in […] lysis buffer. […] lysate of each sample was analyzed for caspase 3 activity test using caspase 3 detected kits [Biovision, Mountain View, Calif.]. […] Additionally, the activity of caspase3 was not increased in the cells, in which SPDCA was induced by BFA/CHX, even by double doses [FIG. 5B, B/C/ZX2].

In the next test the test system is S2-3 cells. The test is described as follows: Etoposide induced CDCA, annexin stain, S2-3 cells. The settings on record: S2-3 cell, 40 hours treatment. Format: cell-based, human. The protocol:
(§4) FIG. 5A. S2-3 and Huh7T cells were treated with CDCA inducer 400 μM etoposide. After 40 hours, the cells apoptosis was examined in microscope and stained with annexin.
(§5) 10^5 S2-3 and Huh7T cells were seeded in 60 mm dishes. When the cell reached 90% confluent, CDCA inducer etoposide was added. After 28-40 hours, the cell shrinkage, blebbing and detachment from culture was found in both cell lines. At the same time, the strong fluorescence stain by annexin was also observed in both cell lines [FIG. 5A]. The amount of apoptotic cells in two cell lines was very similar. Around 62% S2-3 cell was stained by annexin, while 58% of Huh7T cell was stained after 40 hours treatment [data not shown].

The test system of another test is HepG2.215 and G54. The test is described as follows: Etoposide induced CDCA in HepG2.215 and G54 cells. The format is cell-based, human. The settings on record: HepG2.215 and G54, data not shown. The protocol: To study the influence of HCV replication upon SPDCA, G54 and Huh7T cells (its parent cell) were seeded in a 60 mm dish. SPDCA was induced by BFA/CHX/Z-VAD. […] The insensitivity of HCV replicon cell to SPDCA was also seen subsequently by annexin staining. Compared to the parental cells, much fewer HCV expressing cells were stained by annexin after being treated with SPDCA inducers BFA/CHX/Z-VAD [FIG. 8C, Annexin]. DNA fragmentation study also support that the HCV expressing cells were more resistant to apoptosis. 70 hours treatment of BFA/CHX/Z-VAD obviously triggered the DNA fragmentation in Huh7T cell, but not in G54 cells [FIG. 8D]. […] In contrast, both HepG2.215 and G54 are sensitive to CDCA induced by etoposide [data not shown].

A further test has as its system Huh7T cells. The test is described as follows: Etoposide induced CDCA, annexin stain, Huh7T cells. The settings on record: Huh7T cell, 40 hours treatment. The format is cell-based, human. The method, then:
as §4, §5

Like-named read-outs stand apart in the source and are kept apart here. Where a SMILES comes first, the peptide text is derived from it. The star is where a group is joined. Cbz = O=C(OCc1ccccc1)*; CH2F = FC*

On to interferon-a, for which the SPIK level entry in the test on SPIK RNA is listed as “correspondingly decreased with HCV RNA”. In the test on HCV replicon, the “reduction of HCV replication” value is on record as “approximately 90%”.
Turning to `NCCc1ccc(S(=O)(=O)F)cc1` [AEBSF, 4-2-aminoethyl-benzenesulfonyl fluoride], the “block of FADD induced apoptosis” value in the test with prostate tumor cells (combining use of Z-VAD and AEBSF) is “completely blocked”.
In the case of `CC(NC(=O)C(NC(=O)OCc1ccccc1)C(C)C)C(=O)NC(CC(=O)O)C(=O)CF` (stereo not drawn) [Z-VAD] (Cbz-Val-Ala-Asp-CH2F; configuration not given here), in the test on caspase 3, the “caspase 3 activity” value is “kept unchanged”. Also, the “block of FADD induced apoptosis” value in the test with prostate tumor cells (alone) is on record as “unable to be completely blocked”.
`COc1cc([C@@H]2c3cc4c(cc3[C@@H](O[C@@H]3O[C@@H]5CO[C@@H](C)O[C@H]5[C@H](O)[C@H]3O)[C@H]3COC(=O)[C@H]23)OCO4)cc(OC)c1O` [etoposide]: the “caspase 3 activity” value in the test with caspase 3 is given as “at the same level in both cells”. In addition, the “cells stained by annexin” value in the test with S2-3 cells is listed as “Around 62%”; with Huh7T cells, 58%. Further, in the test with HepG2.215 and G54, the “sensitivity to CDCA” value is reported as “sensitive”.
